This experiment concerns influenza virus A/PR/8/34(H1N1). Kind of experiment: ELISA inhibition of influenza virus binding to immobilised GM3. To be noted: 1 nmol GM3 per well, virus suspension 32 HAU, pre-incubated at 4° C. for two hours. Background: An ELISA detects its analyte on a solid surface through an enzyme-linked reagent.

On to `CC(=O)N[C@H]1[C@H]([C@H](O)[C@H](O)CO)O[C@@](O[C@H]2[C@@H](O)[C@@H](CO)O[C@@H](O[C@H]3[C@H](O)[C@@H](O)C(O)O[C@@H]3CO)[C@@H]2O)(C(=O)O)C[C@@H]1O` (stereo partly shown) [Sialyl lactose], for which the IC50 per molecule worked out at 1.5e-07 mol.

These data come from US6358919B1 (priority 1997, dated 2002).
